Experiment in all cases: NCI-60 cell line screen, 48 h
Experiment [1] concerns CCRF-CEM.
The subject of experiment [2] is Malme-3M.
Experiment [3] relates to SNB-19.
Experiment [4] concerns HT-29.
For experiment [5], the system named is UACC-257.
The test system of experiment [6] is SF-539.
Experiment [7] deals with SR.
Experiment [8] relates to SNB-75.
The subject of experiment [9] is CAKI-1.
The subject of experiment [10] is HCT-116.
Experiment [11] has as its system OVCAR-3.
Experiment [12] deals with OVCAR-4.
Experiment [13] has as its system ACHN.
In experiment [14] the test system is IGROV-1.
Experiment [15] deals with 786-0.
The subject of experiment [16] is M14.
Experiment [17] deals with NCI-H23.
The test system of experiment [18] is EKVX.
Experiment [19] concerns NCI-H226.
Experiment [20] concerns NCI-H522.

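Five compound concentrations were applied to cells in 96-well plates for 48 hours; endpoints were derived by simple linear interpolation of the resulting dose-response curve. GI50 = concentration required for 50% inhibition of growth.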 The source made the active and inactive calls. Cut-off read from the data, not from the text of the source: active = GI50 up to about 1.1 µM and inactive = higher.

Consider `Cc1c(/N=N/c2ccc(Cl)cc2)c(-c2ccccc2)n(C2OC(CO)C(O)C(O)C2O)c(=S)c1C#N` (centres undefined), for which the GI50 in experiment [1] is 10 µM (inactive); in experiment [2] it was 25.5 µM (inactive); in [3], 12.3 µM (inactive); in experiment [4], 16.6 µM (inactive); in experiment [5], 22.1 µM (inactive); in [6], 20.7 µM (inactive). The GI50 in [7] is 20.6 µM (inactive); in [8], 18.7 µM (inactive); in [9] it was 18.1 µM (inactive); in experiment [10], 14.3 µM (inactive); in experiment [11], 18.5 µM (inactive); in experiment [12] it was 17.2 µM (inactive). In addition, the GI50 in experiment [13] was 16 µM (inactive); in experiment [14], 15.1 µM (inactive); in [15], 20.2 µM (inactive); in [16], 17.4 µM (inactive); in experiment [17], 10.7 µM (inactive).

Take `CCCCCCCCCCCCCCCCCC(=O)NCC(COP(=O)([O-])OCC[N+](C)(C)C)OC` (centres undefined): the GI50 in [1] was 2.02 µM (inactive); in experiment [2], 8.59 µM (inactive); in [3], 1.91 µM (inactive); in [4], 3.45 µM (inactive); in experiment [5], 15.9 µM (inactive); in experiment [6] it was 17.6 µM (inactive). For the same molecule, the GI50 in experiment [7] is 2.16 µM (inactive); in experiment [8] it was 5 µM (inactive); in [9], 2.44 µM (inactive); in experiment [10] it was 5.66 µM (inactive); in [11], 3.37 µM (inactive); in experiment [12] it was 3.6 µM (inactive). Also, the GI50 in experiment [13] is 10.8 µM (inactive); in experiment [14] it was 1.91 µM (inactive); in experiment [18], 16.3 µM (inactive); in experiment [15] it was 1.5 µM (inactive); in [16], 11.5 µM (inactive); in experiment [19], 3.44 µM (inactive). In experiment [17], the GI50 was 14.3 µM (inactive).

In the case of `CCOC(=O)c1c[nH]c2cc3c(cc2c1=O)CCS3`, the GI50 was > 100 µM (inactive) in experiment [1]; > 100 µM (inactive) in experiment [2]; > 100 µM (inactive) in experiment [3]; 61.2 µM (inactive) in experiment [4]; > 100 µM (inactive) in [5]; > 100 µM (inactive) in [6]. The GI50 in experiment [8] was > 100 µM (inactive); in experiment [9], > 100 µM (inactive); in experiment [10], 37.9 µM (inactive); in experiment [11], > 100 µM (inactive); in experiment [12], > 100 µM (inactive); in [13] it was > 100 µM (inactive). Further, the GI50 in experiment [14] is > 100 µM (inactive); in [18], > 100 µM (inactive); in [15], > 100 µM (inactive); in experiment [20] it was > 100 µM (inactive); in [16], > 100 µM (inactive); in [19], 50.4 µM (inactive). Further, in experiment [17], the GI50 was > 100 µM (inactive).

On to `O=C(/C=C/c1ccc(Cl)c(Cl)c1)Oc1ccc(/C=C2\CCCCC2=O)cc1`, for which the GI50 in experiment [1], in [3], in experiment [4], in [5], in [6] and in experiment [7] was > 100 µM (inactive) throughout. The GI50 in experiment [8], in [9], in experiment [10], in [11], in [12] and in experiment [13] was > 100 µM (inactive) each time. For the same molecule, the GI50 in [14] was > 100 µM (inactive); in experiment [18], > 100 µM (inactive); in [15], > 100 µM (inactive); in experiment [20] it was 91.8 µM (inactive); in [16] it was > 100 µM (inactive); in experiment [17], > 100 µM (inactive).

As to `COc1ccc2cc(C(=O)NCCc3ccccc3)ccc2c1OC`, the GI50 in experiment [2] is > 100 µM (inactive); in experiment [3], 68.1 µM (inactive); in [4], 67.6 µM (inactive); in experiment [5] it was > 100 µM (inactive); in experiment [6], 32.2 µM (inactive); in experiment [7] it was 49.9 µM (inactive). For the same molecule, the GI50 in experiment [9] is > 100 µM (inactive); in experiment [10] it was 96.6 µM (inactive); in [11], 46.1 µM (inactive); in experiment [12] it was > 100 µM (inactive); in experiment [13] it was > 100 µM (inactive); in experiment [14] it was > 100 µM (inactive). Further, the GI50 in experiment [18] is > 100 µM (inactive); in experiment [15], 39.4 µM (inactive); in [16], > 100 µM (inactive); in experiment [19], 63 µM (inactive); in experiment [17], > 100 µM (inactive).

On to `Cn1c2ccccc2c2[nH]cc3nc4ccccc4c-3c21`, for which the GI50 in experiment [1] is 30.8 µM (inactive); in [2], > 100 µM (inactive); in experiment [3] it was 26.1 µM (inactive); in experiment [4], 15.8 µM (inactive); in experiment [5] it was 22.3 µM (inactive); in experiment [6] it was 18 µM (inactive). The GI50 in experiment [8] is 19.5 µM (inactive); in experiment [9] it was 25.1 µM (inactive); in experiment [10], 12.6 µM (inactive); in experiment [11], 17.1 µM (inactive); in experiment [12], 15.6 µM (inactive); in experiment [13] it was 20.4 µM (inactive). The GI50 in [14] was 18 µM (inactive); in [18], 9.71 µM (inactive); in experiment [15] it was > 100 µM (inactive); in experiment [20] it was 13.5 µM (inactive); in experiment [16] it was 17.9 µM (inactive); in experiment [19] it was 22.4 µM (inactive). In addition, the GI50 in experiment [17] was 17.1 µM (inactive).

`COc1cc(C2OC(N)=C(C#N)C3=C2C(C)CCC3)cc(OC)c1OC` (centres undefined): the GI50 in experiment [1] was > 100 µM (inactive); in [2], 39.9 µM (inactive); in experiment [3], 72.3 µM (inactive); in experiment [4], > 100 µM (inactive); in experiment [5], > 100 µM (inactive); in experiment [6] it was 11.9 µM (inactive). For the same molecule, the GI50 in [7] is 0.136 µM (active); in experiment [8], 10.9 µM (inactive); in experiment [9] it was > 100 µM (inactive); in [10], > 100 µM (inactive); in experiment [11], > 100 µM (inactive); in experiment [13] it was 97.9 µM (inactive). Also, the GI50 in [14] is 47.1 µM (inactive); in experiment [18] it was 37.2 µM (inactive); in experiment [15], 42.6 µM (inactive); in experiment [16], > 100 µM (inactive); in experiment [19] it was 68.7 µM (inactive); in experiment [17], > 100 µM (inactive).

As for `O=C(N/C(=C\c1ccc(F)cc1)c1nc2ccccc2[nH]1)c1ccccc1`, the GI50 in [1], in experiment [2], in experiment [3], in [4], in experiment [5] and in experiment [6] was > 100 µM (inactive) each time. Further, the GI50 in experiment [8] is 56 µM (inactive); in [9] it was > 100 µM (inactive); in experiment [10] it was > 100 µM (inactive); in [11], > 100 µM (inactive); in experiment [12], > 100 µM (inactive); in [13], > 100 µM (inactive). Moreover, the GI50 in [14], in [18], in [15], in [20], in [16] and in experiment [19] was > 100 µM (inactive) in each case. Besides, the GI50 in experiment [17] is > 100 µM (inactive).

With `C#CCN(Cc1ccc2[nH]c(N)nc(=O)c2c1)c1ccc(C(=O)NC(CCC(=O)O)C(=O)O)cc1` (centres undefined), the GI50 in experiment [1] was 6.5 µM (inactive); in [2], 47.5 µM (inactive); in experiment [3], 40.4 µM (inactive); in experiment [4] it was > 100 µM (inactive); in experiment [5] it was > 100 µM (inactive); in experiment [6], 0.506 µM (active). For the same molecule, the GI50 in experiment [7] was > 100 µM (inactive); in [9] it was 5.3 µM (inactive); in experiment [10] it was > 100 µM (inactive); in experiment [11], 9.71 µM (inactive); in [13], 3.82 µM (inactive); in experiment [14], 62.1 µM (inactive). For the same molecule, the GI50 in experiment [18] was > 100 µM (inactive); in experiment [15], 6.38 µM (inactive); in [16], 51.3 µM (inactive); in experiment [19], > 100 µM (inactive); in experiment [17], > 100 µM (inactive).

With `CCc1n[nH]c(=O)[nH]1`, the GI50 in [1], in [2], in [3], in experiment [4], in experiment [5] and in experiment [6] was > 100 µM (inactive) in each case. Besides, the GI50 in experiment [7], in experiment [8], in [9], in experiment [10], in [11] and in experiment [13] was > 100 µM (inactive) in each case. In addition, the GI50 in experiment [14], in experiment [18], in experiment [15], in [20], in [16] and in [17] was > 100 µM (inactive) throughout.

For `O=[N+]([O-])c1ccc(C2N3CCCCC3[C@@H]3c4[nH]c5ccccc5c4CCN23)cc1` (some centres undefined), the GI50 in experiment [1] was 27.5 µM (inactive); in experiment [2], < 0.01 µM (active); in experiment [3], 16.6 µM (inactive); in experiment [4] it was 3.48 µM (inactive); in [5], 16.5 µM (inactive); in experiment [6], 13.3 µM (inactive). Further, the GI50 in experiment [7] was 3.12 µM (inactive); in experiment [8], 0.0638 µM (active); in experiment [9], 26.9 µM (inactive); in experiment [10], 6.44 µM (inactive); in experiment [11] it was 18.4 µM (inactive); in experiment [12], 22.6 µM (inactive). In addition, the GI50 in [13] is 12.8 µM (inactive); in experiment [14] it was 24 µM (inactive); in experiment [18] it was 29.9 µM (inactive); in experiment [15] it was 28.1 µM (inactive); in experiment [16], 16.1 µM (inactive); in experiment [17], 15.5 µM (inactive).

For the origin of these results see ChEMBL document CHEMBL1201862, “PubChem BioAssay data set” (2004).
